Test results as given in ChEMBL document CHEMBL1201862, “PubChem BioAssay data set” (2004).
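Grown in 96-well plates, cells were treated for 48 hours with each compound at five concentrations. Insufficient inhibition: endpoint recorded as highest concentration tested. Abbreviation: GI50, concentration required for 50% inhibition of growth.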 Activity calls are given as the source filed them. No stated cut-off is given here; in the data, active = GI50 up to about 1.1 µM and inactive = higher.

Legend:
Experiment in all cases: NCI tumour cell line growth inhibition, 48 h
SF-268 = test system: SF-268
SR = test system: SR
TK-10 = test system: TK-10
OVCAR-4 = test system: OVCAR-4
UACC-257 = test system: UACC-257
HCT-116 = test system: HCT-116
MDA-MB-231 = test system: MDA-MB-231
NCI-H460 = test system: NCI-H460
ACHN = test system: ACHN
OVCAR-5 = test system: OVCAR-5
SF-539 = test system: SF-539
MOLT-4 = test system: MOLT-4
MDA-N = test system: MDA-N
UACC-62 = test system: UACC-62
Hs-578T = test system: Hs-578T
CAKI-1 = test system: CAKI-1
SK-OV-3 = test system: SK-OV-3
NCI-H226 = test system: NCI-H226
HCC 2998 = test system: HCC 2998
A498 = test system: A498

Cc1c(O)c(=O)ccn1CCc1ccc(O)cc1
GI50 (SF-268): 9.51 µM (inactive)
GI50 (SR): 34.6 µM (inactive)
GI50 (TK-10): 15.8 µM (inactive)
GI50 (OVCAR-4): 22 µM (inactive)
GI50 (UACC-257): 25.5 µM (inactive)
GI50 (HCT-116): 35.7 µM (inactive)
GI50 (MDA-MB-231): 2.2 µM (inactive)
GI50 (NCI-H460): 17.1 µM (inactive)
GI50 (ACHN): 13.9 µM (inactive)
GI50 (OVCAR-5): 30 µM (inactive)
GI50 (SF-539): 29.4 µM (inactive)
GI50 (MOLT-4): 26.8 µM (inactive)
GI50 (MDA-N): 11.9 µM (inactive)
GI50 (UACC-62): 0.615 µM (active)
GI50 (Hs-578T): 24.3 µM (inactive)
GI50 (CAKI-1): 4.52 µM (inactive)
GI50 (SK-OV-3): 24.8 µM (inactive)

c1ccc2c(c1)ccc1nc(-c3ccc4c(c3)OCO4)c3c(c12)CCCC3
GI50 (SF-268): 12.2 µM (inactive)
GI50 (NCI-H226): 73.1 µM (inactive)
GI50 (OVCAR-4): 13.6 µM (inactive)
GI50 (UACC-257): 30.1 µM (inactive)
GI50 (HCT-116): 15.8 µM (inactive)
GI50 (HCC 2998): 31.7 µM (inactive)
GI50 (MDA-MB-231): 4.48 µM (inactive)
GI50 (NCI-H460): 11.6 µM (inactive)
GI50 (A498): 14.6 µM (inactive)
GI50 (ACHN): 20.8 µM (inactive)
GI50 (OVCAR-5): 93.5 µM (inactive)
GI50 (SF-539): 12.5 µM (inactive)
GI50 (MOLT-4): 8.26 µM (inactive)
GI50 (MDA-N): 37.9 µM (inactive)
GI50 (UACC-62): 18.8 µM (inactive)
GI50 (Hs-578T): 2.39 µM (inactive)
GI50 (CAKI-1): 45.4 µM (inactive)
GI50 (SK-OV-3): 43.5 µM (inactive)

CCOP(=O)(OCC)C(C)(C)OC(=O)NC(F)(F)F
GI50 (SF-268): > 100 µM (inactive)
GI50 (NCI-H226): 12.7 µM (inactive)
GI50 (SR): > 100 µM (inactive)
GI50 (TK-10): > 100 µM (inactive)
GI50 (OVCAR-4): > 100 µM (inactive)
GI50 (UACC-257): > 100 µM (inactive)
GI50 (HCT-116): > 100 µM (inactive)
GI50 (HCC 2998): > 100 µM (inactive)
GI50 (MDA-MB-231): > 100 µM (inactive)
GI50 (NCI-H460): > 100 µM (inactive)
GI50 (ACHN): > 100 µM (inactive)
GI50 (OVCAR-5): > 100 µM (inactive)
GI50 (SF-539): > 100 µM (inactive)
GI50 (MOLT-4): > 100 µM (inactive)
GI50 (MDA-N): > 100 µM (inactive)
GI50 (UACC-62): > 100 µM (inactive)
GI50 (Hs-578T): > 100 µM (inactive)
GI50 (CAKI-1): > 100 µM (inactive)
GI50 (SK-OV-3): > 100 µM (inactive)

CN1C(=O)C(O)C[C@@H]1c1ccccc1 (stereo partly specified)
GI50 (SF-268): > 100 µM (inactive)
GI50 (NCI-H226): > 100 µM (inactive)
GI50 (SR): > 100 µM (inactive)
GI50 (TK-10): > 100 µM (inactive)
GI50 (OVCAR-4): > 100 µM (inactive)
GI50 (UACC-257): > 100 µM (inactive)
GI50 (HCT-116): > 100 µM (inactive)
GI50 (HCC 2998): > 100 µM (inactive)
GI50 (MDA-MB-231): > 100 µM (inactive)
GI50 (ACHN): > 100 µM (inactive)
GI50 (OVCAR-5): > 100 µM (inactive)
GI50 (SF-539): > 100 µM (inactive)
GI50 (MOLT-4): > 100 µM (inactive)
GI50 (MDA-N): > 100 µM (inactive)
GI50 (UACC-62): > 100 µM (inactive)
GI50 (Hs-578T): > 100 µM (inactive)
GI50 (CAKI-1): > 100 µM (inactive)
GI50 (SK-OV-3): > 100 µM (inactive)

CN(C)CC/C=C1\c2ccccc2Sc2ccc(Cl)cc21
GI50 (SF-268): 14.1 µM (inactive)
GI50 (NCI-H226): 18.6 µM (inactive)
GI50 (TK-10): 14.5 µM (inactive)
GI50 (OVCAR-4): 12.6 µM (inactive)
GI50 (UACC-257): 6.87 µM (inactive)
GI50 (HCT-116): 11.6 µM (inactive)
GI50 (HCC 2998): 2.22 µM (inactive)
GI50 (MDA-MB-231): 13.6 µM (inactive)
GI50 (NCI-H460): 11.7 µM (inactive)
GI50 (A498): 14.3 µM (inactive)
GI50 (ACHN): 15.8 µM (inactive)
GI50 (OVCAR-5): 13.9 µM (inactive)
GI50 (SF-539): 19 µM (inactive)
GI50 (MOLT-4): 11.5 µM (inactive)
GI50 (MDA-N): 12.7 µM (inactive)
GI50 (UACC-62): 13.6 µM (inactive)
GI50 (Hs-578T): 14.4 µM (inactive)
GI50 (CAKI-1): 8.11 µM (inactive)
GI50 (SK-OV-3): 16.3 µM (inactive)
